Source: PubChem BioAssay (NCI)
“And” between values parts separate entries of the source, which are not always exact repeats. Equal values may be shown once.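 Compound exposure: 48 hours, 5 concentrations, 96-well plates. Abbreviation: GI50, concentration required for 50% inhibition of growth. TGI denotes the concentration required for complete inhibition of growth.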

How the values were obtained:
Assay in all cases: growth of human tumour cells (NCI), 48 h
[1] = tested on: T-47D breast
[2] = tested on: MCF7 breast
[3] = tested on: DU-145 prostate
[4] = tested on: DLD-1 colon
[5] = tested on: SNB-78 CNS
[6] = tested on: DMS 273 small cell lung
[7] = tested on: MDA-N
[8] = tested on: RXF-631 renal
[9] = tested on: XF 498 CNS

Compound | GI50 [1] | TGI [1] | GI50 [2] | TGI [2] | GI50 [3] | TGI [3] | other results
O=[N+]([O-])c1cccc([I+]c2ccccc2)c1 | 8.28 µM | 33.4 µM | 8.29 µM | 41.5 µM | 11.1 µM | 24.3 µM | 
O=C1CCCCCCCCCCOC(=O)CCCCCCCCCCO1 |  |  |  |  |  |  | TGI [4]: > 100 µM; TGI [5]: > 100 µM; TGI [6]: > 100 µM
COc1c(OC)c(OC)c(-c2cc(=O)c3c(OC)c(OC)c(OC)c(OC)c3o2)c(OC)c1OC |  | 47.9 µM |  |  |  | > 100 µM | TGI [7]: > 100 µM
O=c1[nH]c(-c2ccc([N+](=O)[O-])cc2)nc2ccc(Cl)cc12 |  |  |  |  |  |  | TGI [5]: > 100 µM; TGI [6]: > 100 µM
C=C(C)C1CCC2(C(=O)O)CCC3(C)C(CCC4C5(C)CCC(O)C(C)(C)C5CCC43C)C12 (stereo unspecified) |  | 35.5 µM |  | 47.7 µM |  | 27.1 µM | TGI [7]: 54.9 µM
C[C@H]1CCC2C(CN3CCCCC3)C(=O)OC2[C@]2(C)C(=O)CC(N3CCCCC3)C12O (stereo partly specified) |  |  |  |  |  |  | TGI [4]: 16 µM; TGI [5]: > 100 µM; TGI [6]: 23.4 µM; TGI [8]: 3.71 µM
Cc1cc(C)c(C2=NO[C@@H]3C(=O)N(c4ccc(Cc5ccc(N6C(=O)[C@H]7C(c8c(C)cc(C)cc8C)=NO[C@H]7C6=O)cc5)cc4)C(=O)[C@H]23)c(C)c1 |  |  |  |  |  |  | TGI [4]: > 100 µM; TGI [5]: > 100 µM; TGI [6]: > 100 µM; TGI [9]: > 100 µM
COc1cc(/C=C2\CC3C4CCC5=CC(=O)CC[C@]5(C)C4CC[C@]3(C)C2=O)ccc1OCCN1CCCCC1 (stereo partly specified) | 11.3 µM | 41.9 µM | 3.35 µM | 8.55 µM | 2.06 µM | 8.33 µM | 
C1C[S][Ge]2([S]CCS1)[S]CCSCC[S]2 |  |  |  |  |  |  | GI50 [4]: > 100 µM; TGI [4]: > 100 µM; GI50 [5]: > 100 µM; TGI [5]: > 100 µM; GI50 [6]: > 100 µM; TGI [6]: > 100 µM
O=C(O)C1C2CCC(O2)C1C(=O)NCc1cccnc1 (stereo unspecified) |  | > 100 µM |  | > 100 µM |  | > 100 µM | TGI [7]: > 100 µM
C=C(C)[C@@H]1CC[C@]2(C(=O)N3CCN(C)CC3)CC[C@]3(C)[C@H](CC[C@@H]4[C@@]5(C)CC[C@H](O)C(C)(C)[C@@H]5CC[C@]43C)[C@@H]12 | 1.48 µM | 3.75 µM | 1.79 µM | 4.22 µM | 1.85 µM | 3.4 µM | 
O=C1NC(Cc2ccccc2)C(=O)N2CCCC12 (stereo unspecified) |  |  |  |  |  |  | TGI [4]: > 100 µM; TGI [5]: > 100 µM; TGI [6]: > 100 µM; TGI [9]: > 100 µM
NCCCCCCCCCn1c2c(c3ccccc3c1=O)C(=O)c1ccccc1-2 | 9.33 µM | 22 µM | 9.62 µM | 26.1 µM | 5.98 µM | 15.9 µM | 
Cc1cc(N(CCC#N)CCC#N)ccc1CC1N=C(c2ccccc2)OC1=O (stereo unspecified) |  |  |  |  |  |  | TGI [4]: > 100 µM; TGI [6]: > 100 µM; TGI [8]: > 100 µM; TGI [9]: > 100 µM
C=CNC(=S)n1nc(-c2ccccc2NC(=O)C(F)(F)F)c(=O)n(C(=S)NC=C)c1=S |  |  |  |  |  |  | TGI [4]: 49.3 µM; TGI [5]: > 100 µM; TGI [6]: > 100 µM; TGI [9]: 83 µM
O=C(Nc1nc(-c2ccccc2Cl)cs1)c1cc(-c2ccc(Cl)cc2)nc2ccc(Cl)cc12 | 22.5 µM | > 100 µM | 0.678 µM | > 100 µM | 4.24 µM | > 100 µM | 
COc1cccc(/C=C2\CCc3ccccc3C2=O)c1 | 13.6 µM | 38.9 µM | 3.53 µM | 17.8 µM | 6.07 µM | 18.7 µM | 

Compound | GI50 [1] | TGI [1] | GI50 [2] | TGI [2] | GI50 [3] | TGI [3] | other results
CN(CCCCN)c1ccc2c(=O)[nH][nH]c(=O)c2c1 |  |  |  |  |  |  | TGI [4]: > 100 µM; TGI [5]: > 100 µM; TGI [6]: > 100 µM; TGI [9]: > 100 µM
CSc1nc(SC)c2c(C)cn(C3OC(C)C(O)C(O)C3O)c2n1 (stereo unspecified) |  | 84.7 µM |  | > 100 µM |  | > 100 µM | TGI [7]: > 100 µM
COc1ccc(/C=C/C(=O)c2ccccc2)cc1OC | 18.4 µM | 48.7 µM and 60.8 µM | 3.3 µM | 11.8 µM and 13.4 µM |  | 24.4 µM and 26.4 µM | TGI [7]: 15.3 µM
O=C(O)c1c[nH]c2c(ccc3[nH]cc(C(=O)O)c(=O)c32)c1=O |  | > 100 µM |  | > 100 µM |  | > 100 µM | TGI [7]: > 100 µM
NC(CSC1(c2ccc(Cl)cc2)c2ccccc2-c2ccccc21)C(=O)O (stereo unspecified) |  | > 100 µM |  | 39 µM |  | > 100 µM | TGI [7]: > 100 µM
O=C1Nc2c(ccc(Cl)c2Cl)/C1=C\c1cc(C(F)(F)F)cc(C(F)(F)F)c1 | 2.5 µM | 10.2 µM | 0.848 µM | 5.64 µM | 5.57 µM | 13.5 µM | 
NNc1ncnc2cccc(Cl)c12 |  | > 100 µM |  | > 100 µM |  | > 100 µM | TGI [7]: > 100 µM
CS(=O)(=O)c1ccc(-c2cnc(NCc3ccco3)n3cnnc23)cc1 | 47.8 µM | > 100 µM | 60.4 µM | > 100 µM | > 100 µM | > 100 µM | 
ClCc1ccc(-c2ccc(Cn3cnc4c(Cl)ncnc43)cc2)cc1 |  |  | 1.1 µM | 12.4 µM | 1.49 µM | 3.36 µM | 
COC(=O)Cc1nn2c(nc1=O)sc1ccc3ccccc3c12 |  |  |  |  |  |  | TGI [4]: > 100 µM; TGI [8]: > 100 µM
CC/C(=C(/CC)c1ccc(O)cc1)c1ccc(O)cc1 | 6.85 µM | 47 µM | 5.78 µM | 19.3 µM | 10 µM | 22.4 µM | 
CC(C)(N)C(=O)N[C@@H]1C(=O)N2[C@@H]1SC(C)(C)[C@@H]2C(=O)O |  | > 100 µM |  | > 100 µM |  | > 100 µM | TGI [7]: > 100 µM
Nc1nc(-c2ccc3ccccc3c2)cc(-c2cc(-c3ccc4ccccc4c3)nc(N)n2)n1 |  | > 100 µM |  | > 100 µM |  | > 100 µM | TGI [7]: > 100 µM
Cc1cc(Cl)ccc1Nc1nc2c(s1)C(=O)c1ccccc1C2=O |  | 7.06 µM |  | 3.72 µM |  | 3.04 µM | TGI [4]: 12.5 µM; TGI [5]: > 80.9 µM; TGI [6]: 5.71 µM; TGI [8]: 20.2 µM
COc1ccc(Nc2ncccc2C(=O)NCc2cn(Cc3cccc(Oc4ccccc4)c3)nn2)c(OC)c1 | 39.4 µM | > 100 µM | 0.653 µM | > 100 µM | 3.52 µM | > 81.5 µM | 
Oc1[nH]c2ccccc2c1/C=c1/ccc2c(c1)N=C(c1cc(F)cc(F)c1)N=2 | 4.55 µM | 21.3 µM | 2.84 µM | 14.1 µM | 10.2 µM | 22.2 µM | 
CCCCCCn1c2c(c3c(O)cccc31)C(=O)c1ccccc1-2 | 41.4 µM | > 100 µM | 18 µM | 35.2 µM | 15.7 µM | 29.7 µM | 
